Data taken from DBAASP.
Converted amounts (≈) assume the structure as drawn. Each block holds one molecule with its values, some of them ahead of it.

Experiments:
Experiment in all cases: ≥ marks a high value that may be exact or a test limit, other limits are often not marked, values filed in µg/mL are converted to µM
[1] = system: Staphylococcus aureus ATCC 6538
[2] = system: Klebsiella pneumoniae ATCC 10031
[3] = system: Salmonella enterica subsp. enterica serovar Typhimurium ATCC 14028
[4] = system: Pseudomonas aeruginosa ATCC 13388
[5] = system: Escherichia coli ATCC 11219
[6] = system: Staphylococcus epidermidis ATCC 12228
[7] = system: Escherichia coli DH5alpha
[8] = system: Micrococcus luteus ATCC 4698
[9] = system: Mycobacterium tuberculosis H37Rv
[10] = system: Pseudomonas aeruginosa ATCC 15692
[11] = system: Staphylococcus aureus ATCC 25923
[12] = system: Escherichia coli ATCC 25922
Saccharomyces cerevisiae = system: Saccharomyces cerevisiae
Micrococcus luteus = system: Micrococcus luteus
Klebsiella pneumoniae = system: Klebsiella pneumoniae
Pseudomonas aeruginosa = system: Pseudomonas aeruginosa
Salmonella typhimurium = system: Salmonella typhimurium
[13] = system: Micrococcus luteus ATCC 9341
[14] = system: Staphylococcus aureus ATCC 29213
Escherichia coli ML-35 = system: Escherichia coli ML-35
[15] = system: Bacillus subtilis ATCC 23857
Bacillus megaterium = system: Bacillus megaterium
[16] = system: Pseudomonas aeruginosa ATCC 27853
[17] = system: Escherichia coli ATCC 8739

Compound: CSCC[C@H](NC(=O)CNC(=O)[C@H](CC(C)C)NC(=O)[C@H](CCCN=C(N)N)NC(=O)[C@H](CCCN=C(N)N)NC(=O)[C@H](C)N)C(=O)N[C@@H](CC(N)=O)C(=O)N1CCC[C@H]1C(=O)N[C@@H](Cc1c[nH]c2ccccc12)C(=O)N[C@@H](CCCCN)C(=O)N[C@H](C(=O)N1CCC[C@H]1C(=O)N1CCC[C@H]1C(=O)N[C@@H](C)C(=O)N[C@@H](CCCCN)C(=O)N1CCC[C@H]1C(=O)N[C@@H](CCCCN)C(=O)NCC(=O)N[C@@H](CO)C(=O)N[C@@H](CCCCN)C(=O)O)[C@@H](C)O [ARRLGMNPWKTPPAKPKGSK]
MIC [9]: ≥ 90.1 µM

Compound: CC[C@H](C)[C@H](N)C(=O)N[C@@H](CC(C)C)C(=O)N1CCC[C@H]1C(=O)N[C@@H](Cc1c[nH]c2ccccc12)C(=O)N[C@@H](CCCCN)C(=O)N[C@@H](Cc1c[nH]c2ccccc12)C(=O)N1CCC[C@H]1C(=O)N[C@@H](Cc1c[nH]c2ccccc12)C(=O)N[C@@H](Cc1c[nH]c2ccccc12)C(=O)N[C@@H](C)C(=O)N[C@@H](Cc1c[nH]c2ccccc12)C(=O)N[C@@H](CCCN=C(N)N)C(=O)N[C@@H](CCCN=C(N)N)C(N)=O [ILPWKWPWWAWRR]
MIC (Klebsiella pneumoniae): 25 µM (≈ 47 µg/mL)
MIC (Pseudomonas aeruginosa): 50 µM (≈ 94 µg/mL)
MIC [7]: 15 µM (≈ 28.2 µg/mL)
MIC (Salmonella typhimurium): ≥ 50 µM
MIC [13]: 1.6 µM (≈ 3.01 µg/mL)

Compound: CC[C@H](C)[C@H](NC(=O)[C@H](C)NC(=O)[C@H](CC(N)=O)NC(=O)[C@@H](NC(=O)CNC(=O)CNC(=O)[C@H](CCCCN)NC(=O)[C@H](C)NC(=O)[C@H](Cc1ccccc1)NC(=O)[C@H](CCCCN)NC(=O)[C@H](CCCCN)NC(=O)[C@H](C)NC(=O)[C@H](Cc1ccccc1)NC(=O)[C@H](CC(N)=O)NC(=O)[C@H](C)NC(=O)[C@@H](NC(=O)[C@H](CCCCN)NC(=O)[C@H](CO)NC(=O)[C@H](CCSC)NC(=O)[C@H](Cc1ccccc1)NC(=O)CN)C(C)C)C(C)C)C(=O)N[C@@H](CCSC)C(=O)N[C@@H](CC(N)=O)C(=O)N[C@@H](CCC(N)=O)C(=O)N[C@@H](CCCCN)C(=O)O [GFMSKVANFAKKFAKGGVNAIMNQK]
MIC [10]: 4 µM (≈ 10.7 µg/mL)
MIC [11]: 128 µM (≈ 344 µg/mL)
MIC [12]: 1 µM (≈ 2.69 µg/mL)
MIC (Saccharomyces cerevisiae): 8 µM (≈ 21.5 µg/mL)
MIC (Micrococcus luteus): 0.5 µM (≈ 1.34 µg/mL)

Compound: CC(C)[C@H](NC(=O)[C@H](CCCCN)NC(=O)[C@H](Cc1ccccc1)NC(=O)[C@@H](NC(=O)[C@@H](NC(=O)[C@@H](N)CCCCN)C(C)C)C(C)C)C(=O)N[C@@H](CCCCN)C(=O)N[C@@H](Cc1ccccc1)C(=O)N[C@@H](CCCCN)C(N)=O [KVVFKVKFK]
MIC [1]: 5.57 µM (≈ 6.24 µg/mL)
MIC [13]: 5.57 µM (≈ 6.24 µg/mL)

Compound: CC[C@H](C)[C@H](NC(=O)[C@H](CCCCN)NC(=O)[C@H](CCCCN)NC(=O)[C@H](CC(C)C)NC(=O)[C@H](CCCCN)NC(=O)[C@H](CCC(=O)O)NC(=O)[C@H](CCCCN)NC(=O)[C@@H]1CCCN1C(=O)[C@H](CCCCN)NC(=O)[C@H](CC(N)=O)NC(=O)[C@H](CCCN=C(N)N)NC(=O)[C@@H]1CCCN1C(=O)[C@H](CCCCN)NC(=O)[C@H](CCCN=C(N)N)NC(=O)[C@H](CC(C)C)NC(=O)[C@H](CCCN=C(N)N)NC(=O)[C@H](CCCCN)NC(=O)[C@H](CCCN=C(N)N)NC(=O)[C@H](CC(C)C)NC(=O)CN)C(=O)O [GLRKRLRKPRNKPKEKLKKI]
MIC (Bacillus megaterium): ≥ 64 µM
MIC [11]: > 64 µM
MIC [16]: > 64 µM
MIC [12]: > 64 µM
MIC [3]: > 64 µM
MIC (Escherichia coli ML-35): ≥ 64 µM

Compound: CC[C@H](C)[C@H](NC(=O)[C@H](CCCCN)NC(=O)[C@H](CCCN=C(N)N)NC(=O)CNC(=O)[C@H](CC(C)C)NC(=O)[C@H](CCCN=C(N)N)NC(=O)[C@H](CCCN=C(N)N)NC(=O)[C@H](CC(C)C)NC(=O)CNC(=O)[C@H](CCCN=C(N)N)NC(C)=O)C(=O)N[C@@H](CCCCN)C(=O)N[C@@H](CCCCN)C(=O)NCC(=O)N[C@@H](CC(C)C)C(=O)N[C@@H](CCCCN)C(=O)N[C@@H](CCCCN)C(=O)N[C@@H](Cc1ccc(O)cc1)C(=O)NCC(N)=O [RGLRRLGRKIKKGLKKYG]
MIC (Klebsiella pneumoniae): 70.7 µM (≈ 153 µg/mL)
MIC [16]: 17.7 µM (≈ 38.3 µg/mL)
MIC [12]: 35.4 µM (≈ 76.7 µg/mL)
MIC [17]: 17.7 µM (≈ 38.3 µg/mL)

Second part, the molecule after the results:

MIC [1]: 20 µM (≈ 25.7 µg/mL)
MIC [2]: 20 µM (≈ 25.7 µg/mL)
MIC [3]: 4 µM (≈ 5.14 µg/mL)
MIC [4]: 10 µM (≈ 12.8 µg/mL)
MIC [5]: 20 µM (≈ 25.7 µg/mL)
Compound: CC[C@H](C)[C@H](NC(=O)CN)C(=O)N[C@@H](Cc1cnc[nH]1)C(=O)N[C@@H](CC(=O)O)C(=O)N[C@@H](C)C(=O)N[C@@H](CC(C)C)C(=O)N[C@@H](CCCCN)C(=O)N[C@@H](Cc1ccc(O)cc1)C(=O)NCC(=O)N[C@@H](CCCCN)C(=O)N1CCC[C@H]1C(=O)N[C@@H](CO)C(N)=O [GIHDALKYGKPS]

MIC [6]: 8.01 µM (≈ 11 µg/mL)
MIC [1]: 5.1 µM (≈ 7 µg/mL)
MIC [7]: 21.9 µM (≈ 30 µg/mL)
MIC [8]: 3.64 µM (≈ 5 µg/mL)
Compound: CC(C)C[C@H](NC(=O)[C@H](CC(C)C)NC(=O)[C@H](CCCCN)NC(=O)[C@H](CO)NC(=O)[C@H](CC(C)C)NC(=O)[C@H](C)NC(=O)[C@H](CCCCN)NC(=O)[C@@H](NC(=O)[C@H](CC(C)C)NC(=O)[C@H](C)NC(=O)CNC(=O)[C@H](CC(C)C)NC(=O)[C@@H](N)Cc1ccccc1)C(C)C)C(=O)O [FLGALVKALSKLL]

MIC [9]: ≥ 192 µM
Compound: CC[C@H](C)[C@H](NC(=O)CN)C(=O)NCC(=O)N[C@@H](CCCCN)C(=O)N[C@@H](Cc1ccccc1)C(=O)N[C@@H](CC(C)C)C(=O)N[C@@H](CCCCN)C(=O)N[C@@H](CO)C(=O)N[C@@H](CCCCN)C(=O)NCC(=O)N[C@@H](CCCCN)C(=O)N[C@@H](Cc1ccccc1)C(=O)NCC(=O)N[C@@H](CCCCN)C(=O)N[C@@H](C)C(=O)O [GIGKFLKSKGKFGKA]

MIC [1]: 8 µM (≈ 12.4 µg/mL)
MIC [2]: 12 µM (≈ 18.7 µg/mL)
MIC [3]: 10 µM (≈ 15.5 µg/mL)
MIC [4]: 12 µM (≈ 18.7 µg/mL)
MIC [5]: 8 µM (≈ 12.4 µg/mL)
Compound: CC[C@H](C)[C@H](NC(=O)CNC(=O)[C@@H](N)Cc1c[nH]c2ccccc12)C(=O)N[C@@H](Cc1cnc[nH]1)C(=O)N[C@@H](CCCN=C(N)N)C(=O)N[C@H](C(=O)N[C@@H](CC(C)C)C(=O)N[C@@H](CCCCN)C(=O)N[C@@H](Cc1ccc(O)cc1)C(=O)NCC(=O)N[C@@H](CCCCN)C(=O)N1CCC[C@H]1C(=O)N[C@@H](CO)C(=O)O)[C@@H](C)CC [WGIHRILKYGKPS]

MIC [10]: ≥ 32 µM
MIC [11]: 128 µM (≈ 321 µg/mL)
MIC [12]: 8 µM (≈ 20.1 µg/mL)
MIC (Saccharomyces cerevisiae): ≥ 32 µM
MIC (Micrococcus luteus): 1 µM (≈ 2.51 µg/mL)
Compound: CC(C)C[C@H](NC(=O)CNC(=O)[C@H](C)NC(=O)[C@@H](NC(=O)[C@H](CC(N)=O)NC(=O)[C@H](CO)NC(=O)[C@H](CC(C)C)NC(=O)[C@H](CC(C)C)NC(=O)CN)C(C)C)C(=O)N[C@@H](CC(C)C)C(=O)N[C@@H](CCCCN)C(=O)N[C@@H](CCC(N)=O)C(=O)N[C@@H](Cc1ccccc1)C(=O)N[C@@H](C)C(=O)N[C@@H](CCCCN)C(=O)NCC(=O)NCC(=O)N[C@H](C(=O)N[C@@H](CC(N)=O)C(=O)N[C@@H](C)C(=O)N[C@H](C(=O)N[C@@H](CC(C)C)C(=O)N[C@@H](CC(N)=O)C(=O)N1CCC[C@H]1C(=O)N[C@@H](CCCCN)C(=O)O)C(C)C)C(C)C [GLLSNVAGLLKQFAKGGVNAVLNPK]

MIC [6]: > 256 µM
MIC [12]: > 256 µM
MIC [14]: > 256 µM
MIC (Escherichia coli ML-35): ≥ 256 µM
MIC [15]: ≥ 256 µM
Compound: CC[C@H](C)[C@H](N)C(=O)N[C@@H](CC(C)C)C(=O)NCC(=O)N[C@H](C(=O)N[C@H](C(=O)N1CCC[C@H]1C(=O)NCC(=O)N[C@@H](CC(C)C)C(=O)N[C@@H](CC(C)C)C(=O)N[C@@H](CCCCN)C(=O)NCC(=O)N[C@@H](CC(C)C)C(N)=O)[C@@H](C)CC)[C@@H](C)O [ILGTIPGLLKGL]

MIC [6]: 9.76 µM (≈ 14 µg/mL)
MIC [1]: 5.58 µM (≈ 8 µg/mL)
MIC [7]: 27.9 µM (≈ 40 µg/mL)
MIC [8]: 4.18 µM (≈ 6 µg/mL)
Compound: CC(C)C[C@H](NC(=O)[C@H](CC(C)C)NC(=O)[C@H](CCCCN)NC(=O)[C@H](CO)NC(=O)[C@@H](NC(=O)[C@@H](NC(=O)[C@H](CCCCN)NC(=O)[C@H](Cc1ccccc1)NC(=O)[C@H](CC(C)C)NC(=O)[C@H](C)NC(=O)CNC(=O)[C@H](CC(C)C)NC(=O)[C@@H](N)Cc1ccccc1)C(C)C)C(C)C)C(=O)O [FLGALFKVVSKLL]
